Source: patent US7932290B2, “Method for the treatment of metabolic disorders” (Wellstat Biologics Corporation, priority 2003, dated 2011)

Tests used:
Assay in all cases: Transcription activation potential, GAL4 luciferase reporter in C3A cells
Type in all cases: cell-based
[1] = target: T1, Mouse PPARγ LBD fusion protein (Mus musculus, UniProt P37238)
T1 sequence (P37238 238-503): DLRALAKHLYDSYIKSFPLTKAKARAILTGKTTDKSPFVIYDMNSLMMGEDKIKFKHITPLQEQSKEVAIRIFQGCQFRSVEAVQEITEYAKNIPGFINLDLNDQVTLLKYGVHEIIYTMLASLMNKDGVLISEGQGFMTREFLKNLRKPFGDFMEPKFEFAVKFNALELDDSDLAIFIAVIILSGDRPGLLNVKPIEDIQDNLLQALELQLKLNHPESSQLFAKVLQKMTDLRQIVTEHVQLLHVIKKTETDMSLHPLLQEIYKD

[2] = tested on: Human PPARγ LBD fusion protein
[3] = target: T2, Mouse PPARα LBD fusion protein (Mus musculus, UniProt P23204)
T2 sequence (P23204 239-466): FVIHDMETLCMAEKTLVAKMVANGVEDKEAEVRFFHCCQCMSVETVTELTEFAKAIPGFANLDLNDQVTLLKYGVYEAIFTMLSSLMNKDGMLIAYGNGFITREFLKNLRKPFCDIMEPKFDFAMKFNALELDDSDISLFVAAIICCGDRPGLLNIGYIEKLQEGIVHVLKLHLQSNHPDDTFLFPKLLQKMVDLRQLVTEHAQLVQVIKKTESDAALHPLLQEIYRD

[4] = target: T3, Human PPARα LBD fusion protein (Homo sapiens, UniProt Q07869)
T3 construct: a.a; 167-468)
T3 sequence (Q07869 167-468): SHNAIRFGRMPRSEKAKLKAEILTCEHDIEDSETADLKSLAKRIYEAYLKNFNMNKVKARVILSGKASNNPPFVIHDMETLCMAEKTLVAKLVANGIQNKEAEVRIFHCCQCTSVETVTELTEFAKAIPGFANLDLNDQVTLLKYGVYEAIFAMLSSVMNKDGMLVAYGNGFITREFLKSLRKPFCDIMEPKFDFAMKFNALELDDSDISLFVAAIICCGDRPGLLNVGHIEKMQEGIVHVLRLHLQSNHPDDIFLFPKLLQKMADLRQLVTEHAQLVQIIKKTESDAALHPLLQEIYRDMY

## Cc1cccc(C)c1COc1cccc(C(=O)O)c1 [Compound CG, 3-(2,6-Dimethylbenzyloxy)benzoic acid]
[1]; 1 μM test compound, Table 20b
  transcription activation potential (luciferase) ± standard deviation: 8.47 ± 5.01 LCPS
[1]; 1 μM, Table 21b
  transcription activation potential (luciferase) ± standard deviation: 634 ± 195 RLU
[1]; 3 μM test compound, Table 20b
  transcription activation potential (luciferase) ± standard deviation: 14.8 ± 4.3 LCPS
[1]; 10 μM test compound, Table 20b
  transcription activation potential (luciferase) ± standard deviation: 20.87 ± 4.1 LCPS
[1]; 10 μM, Table 21b
  transcription activation potential (luciferase) ± standard deviation: 405 ± 318 RLU
[1]; 30 μM test compound, Table 20b
  transcription activation potential (luciferase) ± standard deviation: 55.4 ± 30.6 LCPS
[1]; 30 μM, Table 21b
  transcription activation potential (luciferase) ± standard deviation: 1562 ± 354 RLU
[1]; 100 μM test compound, Table 20b
  transcription activation potential (luciferase) ± standard deviation: 78.8 ± 23.1 LCPS
[1]; 100 μM, Table 21b
  transcription activation potential (luciferase) ± standard deviation: 2555 ± 1609 RLU
[1]; 200 μM test compound, Table 20b
  transcription activation potential (luciferase) ± standard deviation: 101.2 ± 59.1 LCPS
[2]; 1 μM test compound
  transcription activation potential (luciferase) ± standard deviation: 47.9 ± 7.2 LCPS
[2]; 3 μM test compound
  transcription activation potential (luciferase) ± standard deviation: 73.6 ± 39.1 LCPS
[2]; 10 μM test compound
  transcription activation potential (luciferase) ± standard deviation: 72.5 ± 28.2 LCPS
[2]; 30 μM test compound
  transcription activation potential (luciferase) ± standard deviation: 205.6 ± 37.1 LCPS
[2]; 100 μM test compound
  transcription activation potential (luciferase) ± standard deviation: 403.6 ± 86.1 LCPS
[2]; 200 μM test compound
  transcription activation potential (luciferase) ± standard deviation: 598.1 ± 190.4 LCPS
[3]; 1 μM, Table 20a
  transcription activation potential (luciferase) ± standard deviation: 4.43 ± 2.25 LCPS
[3]; 1 μM, Table 21a
  transcription activation potential (luciferase) ± standard deviation: 361 ± 398 RLU
[3]; 3 μM, Table 20a
  transcription activation potential (luciferase) ± standard deviation: 9.17 ± 3.72 LCPS
[3]; 3 μM, Table 21a
  transcription activation potential (luciferase) ± standard deviation: 706 ± 399 RLU
[3]; 5 μM, Table 21a
  transcription activation potential (luciferase) ± standard deviation: 492 ± 160 RLU
[3]; 7 μM, Table 21a
  transcription activation potential (luciferase) ± standard deviation: 652 ± 190 RLU
[3]; 10 μM, Table 20a
  transcription activation potential (luciferase) ± standard deviation: 7.87 ± 0.7 LCPS
[3]; 10 μM, Table 21a
  transcription activation potential (luciferase) ± standard deviation: 394 ± 84 RLU
[3]; 30 μM, Table 20a
  transcription activation potential (luciferase) ± standard deviation: 11.63 ± 5.01 LCPS
[3]; 30 μM, Table 21a
  transcription activation potential (luciferase) ± standard deviation: 651 ± 643 RLU
[3]; 100 μM, Table 20a
  transcription activation potential (luciferase) ± standard deviation: 11.8 ± 8.95 LCPS
[3]; 100 μM, Table 21a
  transcription activation potential (luciferase) ± standard deviation: 926 ± 1362 RLU
[3]; 200 μM, Table 20a
  transcription activation potential (luciferase) ± standard deviation: 80.3 ± 2 LCPS
[4]; 1 μM
  transcription activation potential (luciferase) ± standard deviation: 10.9 ± 11.6 LCPS
[4]; 3 μM
  transcription activation potential (luciferase) ± standard deviation: 19.1 ± 6.1 LCPS
[4]; 10 μM
  transcription activation potential (luciferase) ± standard deviation: 17.9 ± 5.2 LCPS
[4]; 30 μM
  transcription activation potential (luciferase) ± standard deviation: 38.2 ± 21.1 LCPS
[4]; 100 μM
  transcription activation potential (luciferase) ± standard deviation: 23.9 ± 5.3 LCPS
[4]; 200 μM
  transcription activation potential (luciferase) ± standard deviation: 159.4 ± 29.6 LCPS
